Results from patent publication US20090170830A1, “Tricyclic Beta-Secretase Inhibitors for the Treatment of Alzheimer's Disease” (priority 2005, published 2009).

Target: T1, beta-secretase enzyme (BACE 1), soluble human protein (Homo sapiens, UniProt P56817)
T1 construct: soluble (transmembrane domain and cytoplasmic extension excluded) human protein; made in house
Experiment: ECL assay: homogeneous end point electrochemiluminescence assay with biotinylated BACE substrate
Assay type: biochemical
Details: pH 4.5, rt, 30 min, 10% DMSO, range bounds printed in mixed units (lower nM, upper μM)
Procedure: Enzyme inhibition may be determined as follows.
ECL Assay: A homogeneous end point electrochemiluminescence (ECL) assay is employed using a biotinylated BACE substrate. The Km of the substrate is greater than 100 μM and can not be determined due to the limit of solubility of the substrate. A typical reaction contains approximately 0.1 nM enzyme, 0.25 μM of the substrate, and buffer (50 mM NaOAc, pH 4.5, 0.1 mg/ml BSA, 0.2% CHAPS, 15 mM EDTA and 1 mM deferoxamine) in a total reaction volume of 100 μl. The reaction proceeds for 30 min and is then stopped by the addition of 25 μL of 1 M Tris-HCl, pH 8.0. The resulting enzymatic product is assayed by adding a ruthenylated antibody which specifically recognizes the C-terminal residue of the product. Streptavidin coated magnetic beads are added into the solution and the samples are subjected to M-384 (Igen Inc., Gaithersburg, Md.) analysis. Under these conditions, less than 10% of substrate is processed by BACE 1. The enzyme used in these studies is soluble (transmembrane domain and cytoplasmic extension excluded) human protein produced in a baculovirus expression system. To measure the inhibitory potency for compounds, 12 concentrations of inhibitors are prepared starting from 100 μM with three fold series dilution. Solutions of the inhibitor in DMSO are included in the reaction mixture (final DMSO concentration is 10%). […]

T1 sequence (P56817 46-457 limits assumed): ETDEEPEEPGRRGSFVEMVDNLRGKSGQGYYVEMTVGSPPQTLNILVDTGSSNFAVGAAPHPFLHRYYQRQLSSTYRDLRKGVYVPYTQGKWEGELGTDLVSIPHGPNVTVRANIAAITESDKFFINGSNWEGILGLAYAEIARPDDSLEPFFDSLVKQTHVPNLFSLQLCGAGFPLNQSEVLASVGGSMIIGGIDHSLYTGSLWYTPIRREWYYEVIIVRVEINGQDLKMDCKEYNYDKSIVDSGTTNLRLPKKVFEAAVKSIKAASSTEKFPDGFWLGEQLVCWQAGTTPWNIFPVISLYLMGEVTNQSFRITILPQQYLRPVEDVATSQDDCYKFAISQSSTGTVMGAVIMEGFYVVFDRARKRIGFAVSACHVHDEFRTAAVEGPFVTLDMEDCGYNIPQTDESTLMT

IC50 in inhibiting the beta-secretase enzyme: 1 nM and 100000 nM
Compound: CCc1cn2c3c(cc(-c4nnc([C@](C)(N)Cc5ccccc5)o4)cc13)N(C)S(=O)(=O)CC2 [Example 1, (2R)-2-[5-(7-ethyl-1-methyl-2,2-dioxido-3,4-dihydro-1H-[1,2,5]thiadiazepino[3,4,5-hi]indol-9-yl)-1,3,4-oxadiazol-2-yl]-1-phenylpropan-2-amine]
